Data from patent US10189796B2, “[4-(1,3,3-trimethyl-2-oxo-3,4-dihydro-1H-quinoxalin-7-yl)phenoxy]ethyloxy compound or salt thereof” (SANTEN PHARMACEUTICAL CO., LTD., priority 2015, dated 2019).

Legend:
[1] = test system: IL-6 production in human corneal epithelium cell line (HCE-T); assay: IL-6 production inhibitory action evaluation test (LPS stimulation, HTRF); format: cell-based; conditions: 4 hours; for Emax: 100 μM test compound solution 10 μL/well, DEX treated group = 100, read-out: IL-6 production inhibitory ratio (% DEX); for IC50: IL-6 production inhibition
Experimental: To evaluate the action of the present compounds as a GR agonist, IL-6 production inhibitory action in human corneal epithelial cell line after LPS stimulation was examined The IL-6 production was measured by using the HTRF method (Cat No. 62IL6PEB manufactured by Cisbio Bioassays, Inc.) according to the attached protocol. The specific method is described below.
LPS solution: After dissolving LPS in PBS(−), the resulting solution was diluted with a culture solution, whereby an LPS solution with a 1 μg/mL concentration was prepared.
After dissolving the test compound in dimethylsulfoxide, the solution was diluted with a 10% FBS-DMEM/Ham's F12 medium, whereby a 100 μM of the test compound solution was prepared. […] In addition, DEX was similarly dissolved, whereby a 100 μM concentration of the DEX solution was prepared, and an IL-6 production inhibitory ratio of DEX was measured, and used for calculation of Efficacy (% DEX).
Used cells: human corneal epithelium cell line (HCE-T) (RIKEN, Institute of Physical and Chemical Research)
The cells continued to subculture according to this method were used for the test. (Test Method and Measurement Method) • 1) The subcultured HCE-T was recovered and the cells were seeded at 2.0×10^4 cells/0.1 mL/well in a 96-well flat bottom culture plate. • 2) After culturing overnight, medium the medium was removed and each 80 μL/well of 10%
FBS-DMEM/Ham's F12 medium was added. • 3) Test compound solution was added with each 10 μL/well. • 4) LPS solution was added with each 10 μL/well. • 5) The sample to which 1% dimethylsulfoxide-containing 10% FBS-DMEM/Ham's F12 medium was added with each 10 μL/well in place of each test compound solution, and 10% FBS-DMEM/Ham's F12 medium was added in place of the LPS solution was made a negative control. • 6) The sample in which 1% dimethylsulfoxide-containing 10% FBS-DMEM/Ham's F12 medium was added with each 10 μL/well in place of each test compound solution was made a positive control. • 7) After completion of 4 hours cultivation, the supernatant was recovered and the amount of IL-6 released in the supernatant was measured by using an HTRF human IL-6 Kit. • 8) The IL-6 production inhibitory ratio was calculated according to the following calculation formula. (Calculation of IL-6 Production Inhibitory Ratio)
(§1) The IL-6 production inhibitory ratio (%) was calculated by the following formula. IL-6 production inhibitory ratio (%)=100×{1−(IL-6 produced amount of each test compound solution−average value of IL-6 produced amount of negative control group)/(average value of IL-6 produced amount of positive control group−average value of IL-6 produced amount of negative control group)}(%)
Further, the IL-6 production inhibitory ratio (Efficacy (% DEX)) when the DEX treated group was made 100 was calculated. Efficacy (% DEX)=100×{(average value of IL-6 production inhibitory ratio of each test compound solution)/(average value of IL-6 production inhibitory ratio of DEX treated group)}(%)
In addition, IC50 was calculated according to a conventional method. IDBS XLfit4 was used for the calculation.

[2] = test system: TNFα production in rat whole blood; assay: TNFα production inhibitory action evaluation test (LPS stimulation ex vivo, ELISA); format: cell-based; conditions: 20 hours, 200 μM test compound solution 10 μL/well, DEX treated group = 100, read-out: TNFα production inhibitory ratio (% DEX)
Experimental: In order to evaluate an action of the present compound as a GR agonist, a TNFα production inhibitory action in rat whole blood after LPS stimulation ex vivo was investigated. For the measurement of the TNFα production amount, the ELISA method (manufactured by R&D Systems, Cat No. RTA00) was used, and a procedure was carried out according to the protocol attached thereto. Hereinafter, the specific method will be described.
LPS solution: LPS was dissolved in PBS(−) and diluted with RPMI 1640 to prepare an LPS solution with a concentration of 2 μg/mL.
After the test compound was dissolved in dimethylsulfoxide, the solution was diluted with PBS(−) to prepare 200 μM of a test compound solution. In addition, DEX was similarly dissolved to prepare 200 μM of a DEX solution, and a TNFα production inhibitory ratio of DEX was measured, and used for calculation of Efficacy (% DEX).
• 1) Blood was collected from 3 to 5 rats using an injection syringe treated with heparin from the abdominal aorta under isoflurane anesthesia. The rats confirmed death after lething the whole blood. • 2) The blood of 3 to 5 rats pooled in a 96-well round bottom culture plate was seeded at each 180 μL/well. • 3) It was cultured (37° C., 5% CO2, 95% air) for about 1 hour. • 4) The test compound solution was added each 10 μL/well, and cultured for 1 hour. • 5) LPS solution was added each 10 μL/well. • 6) The sample in which 2% dimethylsulfoxide-containing PBS(−) was added with each 10 μL/well in place of each test compound solution, and RPMI 1640 was added with each 10 μL/well in place of the LPS solution was made a negative control. • 7) The sample in which 2% dimethylsulfoxide-containing PBS(−) was added with each 10 μL/well in place of each test compound solution was made a positive control. • 8) After completion of 20 hours cultivation, the supernatant was recovered and the amount of TNFα released in the supernatant was measured by using an ELISA Kit. • 9) The TNFα production inhibitory ratio was calculated according to the following calculation formula. (Calculation of TNFα Production Inhibitory Ratio)
as §1, with “TNFα” for “The IL-6”, “according to” for “by”, “TNFα” for “IL-6”, “(%)=100×{1−(TNFα production” for “(%)=100×{1−(IL-6 produced”, “TNFα production” for “IL-6 produced”
Further, a TNFα production inhibitory ratio (Efficacy (% DEX)) when the DEX treated group was made 100 was calculated. Efficacy (% DEX)=100×{(average value of TNFα production inhibitory ratio of each test compound solution)/(average value of TNFα production inhibitory ratio of DEX treated group)}(%)

SMILES | Emax [1] [%] | IC50 [1] [nM] | Emax [2] [%]
COc1cc(OC[C@@H](O)CC#N)ccc1-c1ccc2c(c1COc1cc(F)ccc1C)N(C)C(=O)C(C)(C)N2 [Compound 5-2, (S)-7-[4-(3-cyano-2-hydroxypropyl)oxy-2-methoxyphenyl]-8-(5-fluoro-2-methyl-phenoxymethyl)-1,3,3-trimethyl-3,4-dihydro-1H-quinoxalin-2-one] | > 99 | 13 | > 99
COc1ccc(CO)cc1-c1ccc2c(c1COc1cc(F)ccc1C)N(C)C(=O)C(C)(C)N2 [Control compound B, 8-(5-fluoro-2-methylphenoxymethyl)-7-(5-hydroxymethyl-2-methoxyphenyl)-1,3,3-trimethyl-3,4-dihydro-1H-quinoxalin-2-one, reference compound] | 62 |  | 77
COCOc1ccc(-c2ccc3c(c2COc2cc(F)ccc2C)N(C)C(=O)C(C)(C)N3)c(OC)c1 [Control compound F, 8-(5-fluoro-2-methylphenoxymethyl)-7-(2-methoxy-4-methoxymethoxyphenyl)-1,3,3-trimethyl-3,4-dihydro-1H-quinoxalin-2-one, reference compound] | 62 |  | 69
COc1ccc(O)cc1-c1ccc2c(c1COc1cc(F)ccc1C)N(C)C(=O)C(C)(C)N2 [Control compound C, 8-(5-fluoro-2-methylphenoxymethyl)-7-(5-hydroxy-2-methoxyphenyl)-1,3,3-trimethyl-3,4-dihydro-1H-quinoxalin-2-one] | 71 | 93 | 
CCCC(=O)Oc1ccc(-c2ccc3c(c2COc2cc(F)ccc2C)N(C)C(=O)C(C)(C)N3)c(OC)c1 [Control compound D, 7-(4-butyryloxy-2-methoxyphenyl)-8-(5-fluoro-2-methylphenoxymethyl)-1,3,3-trimethyl-3,4-dihydro-1H-quinoxalin-2-one, reference compound] | 69 |  | 
COc1cc(OC[C@@H](O)CCO)ccc1-c1ccc2c(c1COc1cc(F)ccc1C)N(C)C(=O)C(C)(C)N2 [Compound 2-1, (S)-7-[4-(2,4-dihydroxybutyl)oxy-2-methoxyphenyl]-8-(5-fluoro-2-methyl-phenoxymethyl)-1,3,3-trimethyl-3,4-dihydro-1H-quinoxalin-2-one] | 82 |  | 97
COc1cc(OC[C@H](C)O)ccc1-c1ccc2c(c1COc1cc(F)ccc1C)N(C)C(=O)C(C)(C)N2 [Compound 1-1, (S)-8-(5-fluoro-2-methylphenoxymethyl)-7-[4-(2-hydroxypropyl)oxy-2-methoxy-phenyl]-1,3,3-trimethyl-3,4-dihydro-1H-quinoxalin-2-one] | 86 |  | 81
COc1ccc(-c2ccc3c(c2COc2cc(F)ccc2C)N(C)C(=O)C(C)(C)N3)c(OC)c1 [Control compound E, 7-(2,4-dimethoxyphenyl)-8-(5-fluoro-2-methyl-phenoxymethyl)-1,3,3-trimethyl-3,4-dihydro-1H-quinoxalin-2-one, reference compound] | 10 |  | 0
